Assay [1] has as its system Mycobacterium tuberculosis. Briefly: Antimycobacterial activity against drug-sensitive Mycobacterium tuberculosis H37Rv by microplate alamar blue assay. Type of assay: functional, organism-based.
For assay [2], the system named is Mycobacterium tuberculosis. Kind of assay: Antimycobacterial activity against drug-sensitive Mycobacterium tuberculosis H37Rv at 6.250 ug/mL relative to isoniazid by microplate alamar blue assay. Type of assay: functional. On the technique in general: The colour change of resazurin is a common sign of viable cells or microbes.
In assay [3] the test system is Mycobacterium tuberculosis. Kind of assay: Antimycobacterial activity against drug-sensitive Mycobacterium tuberculosis H37Rv at 3.125 ug/mL relative to isoniazid by microplate alamar blue assay. Type of assay: functional.
In assay [4] the test system is Mycobacterium tuberculosis. Briefly: Antimycobacterial activity against drug-sensitive Mycobacterium tuberculosis H37Rv at 1000 ug/mL relative to isoniazid by microplate alamar blue assay. Format: functional.

pIC50: −log10 of the molar value.

This is an account of results in ChEMBL document CHEMBL1144566, “Synthesis, anti-tuberculosis activity, and 3D-QSAR study of 4-(adamantan-1-yl)-2-substituted quinolines” (Bioorg Med Chem, 2007).

`O=C(N/N=C/c1ccccn1)c1cc(C23CC4CC(CC(C4)C2)C3)c2ccccc2n1`: the negative logarithm of the IC50 (pIC50) in assay [1] is 5.54. The molecule also returned an inhibition at 6.25 µg/mL in assay [2] of 84%.
For `C=CCN(CC=C)NC(=O)c1cc(C23CC4CC(CC(C4)C2)C3)c2ccccc2n1` the same measures were 4.26 and 22%.
Take `CC(C)NNC(=O)c1cc(C23CC4CC(CC(C4)C2)C3)c2ccccc2n1`: the pIC50 in assay [1] was 4.78. Further, in assay [2], the inhibition at 6.25 µg/mL is 51%.
The matching figures for `CC(C)/C=N/NC(=O)c1cc(C23CC4CC(CC(C4)C2)C3)c2ccccc2n1`: 5.01 and 63%.
As to `O=C(NNc1cccc(F)c1)c1cc(C23CC4CC(CC(C4)C2)C3)c2ccccc2n1`, in assay [3], the inhibition at 3.125 µg/mL stood at 99%. In assay [1], this molecule had a pIC50 of 7.12.
For the molecule `CCCN(CCC)NC(=O)c1cc(C23CC4CC(CC(C4)C2)C3)c2ccccc2n1`, in assay [1], the pIC50 is 5.29. The inhibition at 6.25 µg/mL in assay [2] worked out at 75%.
The matching figures for `O=C(NNCCCc1ccccc1)c1cc(C23CC4CC(CC(C4)C2)C3)c2ccccc2n1`: 4.85 and 50%.
For `O=C(N/N=C/c1cccc(O)c1)c1cc(C23CC4CC(CC(C4)C2)C3)c2ccccc2n1` the same measures were 6.83 and 99%.
For `O=C(N/N=C/c1ccc(C(F)(F)F)cc1C(F)(F)F)c1cc(C23CC4CC(CC(C4)C2)C3)c2ccccc2n1` the same measures were 5.19 and 64%.
Molecule `NNC(=O)c1cc(C23CC4CC(CC(C4)C2)C3)c2ccccc2n1` gave a pIC50 in assay [1] of 6.71. The same molecule gave an inhibition at 6.25 µg/mL in assay [2] of 99%.
The molecule `O=C(N/N=C/c1ccc(O)cc1)c1cc(C23CC4CC(CC(C4)C2)C3)c2ccccc2n1` showed a pIC50 in assay [1] of 5.27. The molecule further yielded an inhibition at 6.25 µg/mL in assay [2] of 73%.
For `COc1ccc2ccccc2c1/C=N/NC(=O)c1cc(C23CC4CC(CC(C4)C2)C3)c2ccccc2n1` the same measures were 5.24 and 69%.
In assay [1], `O=CNNC(=O)c1cc(C23CC4CC(CC(C4)C2)C3)c2ccccc2n1` had a pIC50 of 4.12. In addition, the inhibition at 6.25 µg/mL in assay [2] stood at 19%.
The matching figures for `CCCCNNC(=O)c1cc(C23CC4CC(CC(C4)C2)C3)c2ccccc2n1`: 4.87 and 55%.
The matching figures for `O=C(NNCCc1ccccc1)c1cc(C23CC4CC(CC(C4)C2)C3)c2ccccc2n1`: 5.10 and 65%.
The molecule `CCC(C)NNC(=O)c1cc(C23CC4CC(CC(C4)C2)C3)c2ccccc2n1` (stereo not drawn) gave a negative logarithm of the IC50 (pIC50) in assay [1] of 6.29. For the same molecule, the inhibition at 6.25 µg/mL in assay [2] turned out to be 97%.
Turning to `O=C(N/N=C/c1ccco1)c1cc(C23CC4CC(CC(C4)C2)C3)c2ccccc2n1`, at 3.125 µg/mL the inhibition in assay [3] was 99%. For the same molecule, in assay [1], the pIC50 is 7.10.
In assay [1], `O=C(N/N=C/c1cccnc1)c1cc(C23CC4CC(CC(C4)C2)C3)c2ccccc2n1` had a negative-log IC50 (pIC50) of 4.87. The molecule further gave an inhibition at 6.25 µg/mL in assay [2] of 53%.
For `O=C(NNc1ccc(F)cc1)c1cc(C23CC4CC(CC(C4)C2)C3)c2ccccc2n1` the same measures were 5.95 and 93%.
The matching figures for `O=C(N/N=C/c1c(F)c(F)c(F)c(F)c1F)c1cc(C23CC4CC(CC(C4)C2)C3)c2ccccc2n1`: 4.18 and 16%.
The matching figures for `O=C(NN(CCCc1ccccc1)CCCc1ccccc1)c1cc(C23CC4CC(CC(C4)C2)C3)c2ccccc2n1`: 4.86 and 45%.
Consider `CC(=O)NNC(=O)c1cc(C23CC4CC(CC(C4)C2)C3)c2ccccc2n1`, for which at 3.125 µg/mL the inhibition in assay [3] was 99%. Further, the pIC50 in assay [1] is 7.06.
`CCCCCCNNC(=O)c1cc(C23CC4CC(CC(C4)C2)C3)c2ccccc2n1` gave a pIC50 in assay [1] of 5.32. This molecule also gave an inhibition at 6.25 µg/mL in assay [2] of 77%.
Turning to `O=C(N/N=C/c1ccccc1)c1cc(C23CC4CC(CC(C4)C2)C3)c2ccccc2n1`, at 3.125 µg/mL the inhibition in assay [3] was 99%. In assay [1], this molecule gave a pIC50 of 7.11.
`COc1ccc(/C=N/NC(=O)c2cc(C34CC5CC(CC(C5)C3)C4)c3ccccc3n2)c2ccccc12` showed a pIC50 in assay [1] of 5.02. For the same molecule, 6.25 µg/mL produced 57% inhibition in assay [2].
For `O=C(NNc1ccccc1F)c1cc(C23CC4CC(CC(C4)C2)C3)c2ccccc2n1` the same measures were 6.82 and 99%.
For the molecule `O=C(N/N=C/c1ccnc2ccccc12)c1cc(C23CC4CC(CC(C4)C2)C3)c2ccccc2n1`, in assay [3], the inhibition at 3.125 µg/mL was 99%. For the same molecule, in assay [1], the pIC50 is 7.16.
`CCCCCCN(CCCCCC)NC(=O)c1cc(C23CC4CC(CC(C4)C2)C3)c2ccccc2n1` gave a pIC50 in assay [1] of 5.14. In assay [2], this molecule returned an inhibition at 6.25 µg/mL of 65%.
`O=C(N/N=C/c1cccs1)c1cc(C23CC4CC(CC(C4)C2)C3)c2ccccc2n1`: the inhibition at 3.125 µg/mL in assay [3] came out at 99%. In assay [1], this molecule gave a pIC50 of 7.12.
On to `CC/C=N/NC(=O)c1cc(C23CC4CC(CC(C4)C2)C3)c2ccccc2n1`, for which the pIC50 in assay [1] was 5.11. In addition, at 6.25 µg/mL the inhibition in assay [2] was 69%.
The matching figures for `CCCCN(CCCC)NC(=O)c1cc(C23CC4CC(CC(C4)C2)C3)c2ccccc2n1`: 5.09 and 64%.
Regarding `O=C(NNC1CCCCC1)c1cc(C23CC4CC(CC(C4)C2)C3)c2ccccc2n1`, in assay [3], the inhibition at 3.125 µg/mL was found to be 99%. Further, the pIC50 in assay [1] is 7.11.
On to `O=C(N/N=C/c1ccncc1)c1cc(C23CC4CC(CC(C4)C2)C3)c2ccccc2n1`, for which, in assay [1], the pIC50 was 5.19. For the same molecule, at 6.25 µg/mL the inhibition in assay [2] was 70%.
The matching figures for `O=C(NN(C(=O)c1ccccc1)C(=O)c1ccccc1)c1cc(C23CC4CC(CC(C4)C2)C3)c2ccccc2n1`: 4.95 and 51%.
For `O=C(N/N=C/c1c2ccccc2cc2ccccc12)c1cc(C23CC4CC(CC(C4)C2)C3)c2ccccc2n1` the same measures were 5.20 and 66%.
`O=C(N/N=C/c1ccc[nH]1)c1cc(C23CC4CC(CC(C4)C2)C3)c2ccccc2n1` registered an inhibition at 3.125 µg/mL in assay [3] of 99%. In addition, in assay [1], the pIC50 is 7.10.
Turning to `CCCNNC(=O)c1cc(C23CC4CC(CC(C4)C2)C3)c2ccccc2n1`, the pIC50 in assay [1] is 5.42. Further, in assay [2], the inhibition at 6.25 µg/mL was 82%.
For `O=C(N/N=C/c1ccnc2cc(Cl)ccc12)c1cc(C23CC4CC(CC(C4)C2)C3)c2ccccc2n1` the same measures were 6.18 and 95%.
For `O=C(N/N=C/c1ccccc1Cl)c1cc(C23CC4CC(CC(C4)C2)C3)c2ccccc2n1`, in assay [4], the inhibition at 1000 µg/mL came out at 99%. This molecule also showed a pIC50 in assay [1] of 7.64.
In assay [1], `CC(C)(C)/C=N/NC(=O)c1cc(C23CC4CC(CC(C4)C2)C3)c2ccccc2n1` gave a pIC50 of 3.84. In assay [2], this molecule returned an inhibition at 6.25 µg/mL of 10%.
The matching figures for `O=C(NN(CCc1ccccc1)CCc1ccccc1)c1cc(C23CC4CC(CC(C4)C2)C3)c2ccccc2n1`: 5.02 and 55%.
The molecule `O=C(NNC1CCCC1)c1cc(C23CC4CC(CC(C4)C2)C3)c2ccccc2n1` showed an inhibition at 3.125 µg/mL in assay [3] of 99%. The molecule further showed a pIC50 in assay [1] of 7.09.
In assay [1], `COc1ccc(/C=N/NC(=O)c2cc(C34CC5CC(CC(C5)C3)C4)c3ccccc3n2)cc1` gave a negative-log IC50 (pIC50) of 4.25. The inhibition at 6.25 µg/mL in assay [2] came to 20%.
For the molecule `CN(C)c1ccc(/C=N/NC(=O)c2cc(C34CC5CC(CC(C5)C3)C4)c3ccccc3n2)c2ccccc12`, the pIC50 in assay [1] is 5.48. The molecule further returned an inhibition at 6.25 µg/mL in assay [2] of 79%.

As a reminder, the pIC50 is −log10 of the IC50, conventionally taken in molar units. A lower pIC50 goes with a large IC50. As a reminder, the inhibition is the share of the control response that was lost under treatment. Low values mean a weak effect, high ones a strong effect.
